Measurements reported in ChEMBL document CHEMBL3396972, “Synthesis and biological evaluation of DAPY-DPEs hybrids as non-nucleoside inhibitors of HIV-1 reverse transcriptase” (Bioorg Med Chem, 2015).

Legend:
[1] = system: Human immunodeficiency virus 1; assay: Antiviral activity against wild type HIV-1 3B infected in human MT4 cells assessed as reduction of virus-induced cytopathic effect after 5 days by MTT assay; format: functional, organism-based; conditions: Human immunodeficiency virus 1, 3B, MT4, 120 h
[2] = system: Human immunodeficiency virus 1; assay: Antiviral activity against HIV-1 RES056 harboring reverse transcriptase K103N/Y181C double mutant infected in human MT4 cells assessed as reduction of virus-induced cytopathic effect after 5 days by MTT assay; format: functional, organism-based; conditions: Human immunodeficiency virus 1, RES056, MT4, 120 h
[3] = system: Human immunodeficiency virus 2; assay: Antiviral activity against wild type HIV-2 ROD infected in human MT4 cells assessed as reduction of virus-induced cytopathic effect after 5 days by MTT assay; format: functional, organism-based; conditions: Human immunodeficiency virus 2, ISOLATE ROD, MT4, 120 h
[4] = Cytotoxicity against human MT4 cells after 5 days MTT assay; format: cell-based
[5] = Selectivity index, ratio of CC50 for human MT4 cells to EC50 for wild type HIV-1 3B infected in human MT4 cells; format: toxicity, cell-based; conditions: read-out: Ratio CC50/EC50
[6] = target: Human immunodeficiency virus type 1 reverse transcriptase (Human immunodeficiency virus 1, UniProt Q72547); assay: Inhibition of wild type HIV1 p66/p51 reverse transcriptase by spectrofluorometry

Row | SMILES | EC50 [1] [µM] | EC50 [2] [µM] | EC50 [3] [µM] | CC50 at 120 h [4] [µM] | selectivity ratio [5] | IC50 [6] [µM]
1 | Cc1cnc(Nc2ccc(C#N)cc2)nc1OCC(=O)Nc1ccc(Br)cc1 | > 34.7 | > 34.7 | > 34.7 | 34.7 | < 1 | 
2 | Cc1cnc(Nc2ccc(C#N)cc2)nc1OCC(=O)Nc1ccc(C#N)cc1F | 3.03 | > 311 | > 311 | > 311 | > 102 | 12
3 | N#Cc1ccc(Nc2nccc(OCC(=O)Nc3cccc(Cl)c3)n2)cc1 | 0.035 | > 329 | > 329 | > 329 | > 9340 | 0.12
4 | Cc1cc(OCC(=O)Nc2ccc(F)cc2)nc(Nc2ccc(C#N)cc2)n1 | > 331 | > 331 | > 331 | > 331 |  | 
5 | Cc1cn([C@H]2C[C@H](N=[N+]=[N-])[C@@H](CO)O2)c(=O)[nH]c1=O [ZIDOVUDINE] |  | 0.01 | 0.0066 | > 93.5 |  | 
6 | O=c1[nH]cnc2c1ncn2[C@H]1CC[C@@H](CO)O1 [DIDANOSINE] |  |  |  | > 212 | > 9 | 
7 | Cc1cnc(Nc2ccc(C#N)cc2)nc1OCC(=O)Nc1cccc(Cl)c1 | 0.05 | > 144 | > 144 | 144 | 2890 | 0.16
8 | Cc1cc(OCC(=O)Nc2ccc(C#N)cc2)nc(Nc2ccc(C#N)cc2)n1 | > 325 |  | > 325 | > 325 |  | 
9 | Cc1ccnc2c1NC(=O)c1cccnc1N2C1CC1 [NEVIRAPINE] |  | ≥ 7.59 |  | > 15 |  | 
10 | Nc1ccn([C@@H]2CS[C@H](CO)O2)c(=O)n1 [LAMIVUDINE] |  |  |  | > 87.2 | > 39 | 
11 | O=C1Nc2ccc(Cl)cc2[C@@](C#CC2CC2)(C(F)(F)F)O1 [EFAVIRENZ] | 0.0062 |  |  | > 6.34 |  | 
12 | CC(C)Nc1cccnc1N1CCN(C(=O)c2cc3cc(NS(C)(=O)=O)ccc3[nH]2)CC1 [DELAVIRDINE] | 0.65 | > 43.8 |  | > 43.8 | > 67 | 
13 | N#Cc1ccc(Nc2nccc(OCC(=O)Nc3ccc(C#N)cc3F)n2)cc1 | > 322 | > 322 | > 322 | > 322 |  | 
14 | N#Cc1ccc(Nc2nccc(OCC(=O)Nc3ccc(F)cc3)n2)cc1 | > 344 | > 344 | > 344 | > 344 |  | 
15 | Cc1cc(OCC(=O)Nc2cccc(Cl)c2)nc(Nc2ccc(C#N)cc2)n1 | 0.17 | > 32.1 | > 32.1 | 32.1 | 197 | 0.54
16 | Cc1cc(C#N)cc(C)c1Oc1nc(Nc2ccc(C#N)cc2)nc(N)c1Br [ETRAVIRINE] | 0.0017 | 0.013 | > 13.3 | 13.3 | 7680 | 
17 | Cc1cnc(Nc2ccc(C#N)cc2)nc1OCC(=O)Nc1ccccc1Cl | 0.017 | > 197 | > 197 | 197 | 11300 | 0.046
18 | Cc1cnc(Nc2ccc(C#N)cc2)nc1OCC(=O)Nc1ccc(F)cc1 | ≥ 34.5 | > 331 | > 331 | > 331 |  | 18.9
19 | Cc1cnc(Nc2ccc(C#N)cc2)nc1OCC(=O)Nc1ccc(Cl)cc1 | > 317 | > 317 | > 317 | > 317 |  | 
20 | Cc1cc(OCC(=O)Nc2ccc(Cl)cc2)nc(Nc2ccc(C#N)cc2)n1 | > 2.63 | 2.63 | 2.63 | 2.63 | < 1 | 
21 | Cc1cnc(Nc2ccc(C#N)cc2)nc1OCC(=O)Nc1ccc(C#N)cc1 | 2.42 | > 48.4 | > 48.4 | ≥ 48.4 | ≥ 20 | 17.6
22 | Cc1cnc(Nc2ccc(C#N)cc2)nc1OCC(=O)Nc1ccccc1F | 0.013 | > 331 | > 331 | > 331 | > 25200 | 0.083
23 | N#Cc1ccc(NC(=O)COc2ccnc(Nc3ccc(C#N)cc3)n2)cc1 | ≥ 35.1 | > 338 | > 338 | > 338 |  | 23.9
24 | Cc1cnc(Nc2ccc(C#N)cc2)nc1OCC(=O)Nc1ccc([N+](=O)[O-])cc1 | > 66.3 | > 66.3 | > 66.3 | 66.3 | < 1 | 
25 | Cc1cc(OCC(=O)Nc2ccc([N+](=O)[O-])cc2)nc(Nc2ccc(C#N)cc2)n1 | > 309 |  | > 309 | > 309 |  | 
26 | N#Cc1ccc(Nc2nccc(OCC(=O)Nc3ccc([N+](=O)[O-])cc3)n2)cc1 | > 320 | > 320 | > 320 | > 320 |  | 
27 | N#Cc1ccc(Nc2nccc(OCC(=O)Nc3ccc(Cl)cc3)n2)cc1 | 19.2 | > 162 | 162 | 162 | 8 | 26.9
28 | Cc1cc(OCC(=O)Nc2ccc(C#N)cc2F)nc(Nc2ccc(C#N)cc2)n1 | > 311 |  | > 311 | > 311 |  | 
29 | Cc1cc(OCC(=O)Nc2ccc(Br)cc2)nc(Nc2ccc(C#N)cc2)n1 | > 0.93 |  | 0.93 | 0.93 | < 1 | 
30 | COc1ccc(NC(=O)COc2ccnc(Nc3ccc(C#N)cc3)n2)cc1 | 49.1 | > 333 | > 333 | > 333 | > 7 | 24.6
